“Also recorded” adds a separate entry of the source. Read-outs that look alike come from different tables or passages of the source.
Columns and labels:
[1] = tested on: collagen-induced arthritis; conditions: rat, in vivo
Method: Prior to be randomly placed in treatment groups, animals were weighed, and paw volume was measured. Once randomly assigned to treatment groups, on Day 0, animals in groups 2-9 were immunized by subcutaneous injection at the base of the tail.
The immunization comprised 100 μL of the CFA+Collagen emulsion (prepared according to the method in Experimental Method A). Animals in group one received no immunization. Seven days after the first injection, animals in groups 2-9 received a booster immunization comprising 200 μL of the IFA+Collagen emulsion (prepared according to the method in Experimental Method A).
Starting on Day 0, animals in group 1 and 2 were administered daily doses of the vehicle per os (P.O.) for 21 days. […] The twice daily doses for animals in groups 4-9 were 8 hours apart (e.g., the first dose at 8:00 AM and the second dose at 4:00 PM).
Body weight of all animals was recorded daily for the 21-day period. Blind clinical scores on all four limbs were conducted for all animals in the study. Animals were assessed prior to receiving their first dose of the compound or control, and scores for each limb were combined to a total daily score for each animal. Clinical score assessments were performed on Day 0, 6, 12, 13, 14, 15, 18, 19, and 21 (for a total of 9 daily scores).
Paw volume was recorded for each animal on Day 0, 6, 12, 13, 14, 15, 18, 19, and 21 (for a total of 9 measurements). To measure paw volume, animals were gently held with one hand while the hind paw was placed into a plethysmometer with the other hand. Lipid displacement by the paw was recorded and used to represent paw volume.
All data measured and recorded was analyzed using SPSS 16.0 software. Groups were compared using one-way ANOVA and significance was set at p<0.05.

[2] = tested on: collagen-induced arthritis; test: Histopathologic analysis of H&E-stained hind limbs of CIA rats; type: in vivo, Lewis rat; conditions: for Number of animals: Erosion/Ulcer, cartilaginous, Marked / Number of animals: Erosion/Ulcer, cartilaginous, Mild / Number of animals: Erosion/Ulcer, cartilaginous, Minimal / Number of animals: Erosion/Ulcer, cartilaginous, Moderate / Number of animals: Granulation tissue, Marked / Number of animals: Granulation tissue, Mild / Number of animals: Granulation tissue, Minimal / Number of animals: Granulation tissue, Moderate / Number of animals: Increased bone, periosteum, Marked / Number of animals: Increased bone, periosteum, Mild / Number of animals: Increased bone, periosteum, Minimal / Number of animals: Increased bone, periosteum, Moderate / Number of animals: Increased eroded surface, bone, Marked / Number of animals: Increased eroded surface, bone, Mild / Number of animals: Increased eroded surface, bone, Minimal / Number of animals: Increased eroded surface, bone, Moderate / Number of animals: Mixed cell inflammation, Marked / Number of animals: Mixed cell inflammation, Mild / Number of animals: Mixed cell inflammation, Minimal / Number of animals: Mixed cell inflammation, Moderate / Number of animals: No Visible Lesions: hind limbs, CIA induced, 8 animals examined
From the text: Hind limbs were collected following euthanasia, with the left limb being used for H&E staining.
H&E-stained slides of designated tissues from animals were transferred to an independent pathologist for microscopic evaluation (SPFBio). Samples were assigned the histologic grades based on the severity of change from tissue where CIA was not induced. Histology grades assigned were as follows: grade 1 (minimal change), grade 2 (mild change), grade 3 (moderate change), grade 4 (marked change), and grade 5 (severe change).
Moderate inflammation was also associated with increased edema fluid, fibrin, and cellular debris. Marked mixed cell inflammation was characterized by dense, widespread accumulations of neutrophils and macrophages with lesser number of lymphocytes within one or more joint spaces, synovium and periarticular soft tissues. Marked inflammation was also associated with abundant edema fluid, fibrin, and cellular debris.
Marked granulation tissue (pannus) was associated with inflammation and was characterized by widespread fibrovascular connective tissue that expanded/replaced the periarticular soft tissues of one or more joints, extended into/expanded joint spaces, was contiguous with areas of erosion/ulcer in articular cartilage and/or increased eroded surface of bone, and variably extended along the diaphysis.
Instances of minimal increased eroded surface were not associated with fragments of bone contiguous and/or surrounded by granulation tissue. […] In some areas, increased eroded surfaces were contiguous with areas of erosion/ulcer in the articular cartilages. Instance of marked increased eroded surface were often associated with fragments of bone contiguous with and/or surrounded by granulation tissue.
This observation was typically most pronounced at joint margins (transition zone). The ulceration was often associated with inflammation and granulation tissue extending through the defect to the subchondral bone.
Marked increased periosteal bone (periosteal bone formation) was characterized by extensive areas of increased bone matrix and numerous prominent osteoblasts lining trabecular surfaces along the metaphysis and/or diaphysis of one or more bones. In some areas, increased periosteal bone was contiguous with increased eroded surface and/or erosion/ulcer at articular cartilage.

[3] = CIA rats, 3 mg/kg (group 5), hind limb H&E
[4] = CIA rats, 10 mg/kg (group 6), hind limb H&E
[5] = CIA rats, 30 mg/kg (group 7), hind limb H&E

CNC(=O)c1[nH]c(C(=O)NC2CCC2)cc1O[C@@H](C)c1ccccc1 (stereo in doubt) [Example 101, N^5-cyclobutyl-N^2-methyl-3-(1-phenylethoxy)-1H-pyrrole-2,5-dicarboxamide]
Clinical Observation ([1]; 10 mg/kg): Diarrhea | Clinical Observation ([1]; 30 mg/kg): Diarrhea | animals that gained weight by the end of the study ([1]; po, 3 mg/kg): 7/8 | body weight over the course of the study ([1]; po, 3 mg/kg): weight gain over the first 13 days of the study, similar to animals in groups 2 and 4, followed by weight loss over the remaining days | diarrhea over the 21-day period ([1]; po, 3 mg/kg): did not have diarrhea | increase in body weight, day 21 compared to day 0 ([1]; po, 3 mg/kg): 1.7% | animals that either gained no weight or lost weight ([1]; po, 10 mg/kg): 5/8 | animals that gained weight by the end of the study ([1]; po, 10 mg/kg): 3/8 | animals that had diarrhea (for a single day) over the 21-day period ([1]; po, 10 mg/kg): Two different animals | body weight over the course of the study ([1]; po, 10 mg/kg): modest weight gains over the first 10-11 days of the study, followed by weight loss | body weight relative to CIA + vehicle (group 2) ([1]; po, 10 mg/kg): significantly decreased relative to group 2 on days 6-7 and 10-18 (p<0.01), and on days 9 and 19-21 (p<0.05) | weight change, day 21 compared to day 0 ([1]; po, 10 mg/kg): approximately 0.5% | animals that either lost weight or gained no weight ([1]; po, 30 mg/kg): 5/8 | animals that gained weight by the end of the study ([1]; po, 30 mg/kg): 3/8 | animals that had diarrhea over the 21-day period ([1]; po, 30 mg/kg): Four different animals | body weight over the course of the study ([1]; po, 30 mg/kg): modest weight gains over the first 10-11 days of the study, followed by weight loss | body weight relative to CIA + vehicle (group 2) ([1]; po, 30 mg/kg): significantly decreased relative to group 2 on days 6-7 and 9-18 (p<0.01), and on days 5 and 19-21 (p<0.05) | weight change, day 21 compared to day 0 ([1]; po, 30 mg/kg): approximately 0.5% | Number of animals: Erosion/Ulcer, cartilaginous, Marked ([2]; 3 mg/kg): 0 | Number of animals: Erosion/Ulcer, cartilaginous, Mild ([2]; 3 mg/kg): 2 | Number of animals: Erosion/Ulcer, cartilaginous, Minimal ([2]; 3 mg/kg): 0 | Number of animals: Erosion/Ulcer, cartilaginous, Moderate ([2]; 3 mg/kg): 6 | Number of animals: Granulation tissue, Marked ([2]; 3 mg/kg): 0 | Number of animals: Granulation tissue, Mild ([2]; 3 mg/kg): 1 | Number of animals: Granulation tissue, Minimal ([2]; 3 mg/kg): 0 | Number of animals: Granulation tissue, Moderate ([2]; 3 mg/kg): 7 | Number of animals: Increased bone, periosteum, Marked ([2]; 3 mg/kg): 0 | Number of animals: Increased bone, periosteum, Mild ([2]; 3 mg/kg): 7 | Number of animals: Increased bone, periosteum, Minimal ([2]; 3 mg/kg): 0 | Number of animals: Increased bone, periosteum, Moderate ([2]; 3 mg/kg): 1 | Number of animals: Increased eroded surface, bone, Marked ([2]; 3 mg/kg): 0 | Number of animals: Increased eroded surface, bone, Mild ([2]; 3 mg/kg): 5 | Number of animals: Increased eroded surface, bone, Minimal ([2]; 3 mg/kg): 0 | Number of animals: Increased eroded surface, bone, Moderate ([2]; 3 mg/kg): 3 | Number of animals: Mixed cell inflammation, Marked ([2]; 3 mg/kg): 1 | Number of animals: Mixed cell inflammation, Mild ([2]; 3 mg/kg): 0 | Number of animals: Mixed cell inflammation, Minimal ([2]; 3 mg/kg): 0 | Number of animals: Mixed cell inflammation, Moderate ([2]; 3 mg/kg): 7 | Number of animals: No Visible Lesions ([2]; 3 mg/kg): 0 | Number of animals: Erosion/Ulcer, cartilaginous, Marked ([2]; 10 mg/kg): 0 | Number of animals: Erosion/Ulcer, cartilaginous, Mild ([2]; 10 mg/kg): 3 | Number of animals: Erosion/Ulcer, cartilaginous, Minimal ([2]; 10 mg/kg): 1 | Number of animals: Erosion/Ulcer, cartilaginous, Moderate ([2]; 10 mg/kg): 3 | Number of animals: Granulation tissue, Marked ([2]; 10 mg/kg): 0 | Number of animals: Granulation tissue, Mild ([2]; 10 mg/kg): 3 | Number of animals: Granulation tissue, Minimal ([2]; 10 mg/kg): 0 | Number of animals: Granulation tissue, Moderate ([2]; 10 mg/kg): 3 | Number of animals: Increased bone, periosteum, Marked ([2]; 10 mg/kg): 0 | Number of animals: Increased bone, periosteum, Mild ([2]; 10 mg/kg): 4 | Number of animals: Increased bone, periosteum, Minimal ([2]; 10 mg/kg): 1 | Number of animals: Increased bone, periosteum, Moderate ([2]; 10 mg/kg): 2 | Number of animals: Increased eroded surface, bone, Marked ([2]; 10 mg/kg): 0 | Number of animals: Increased eroded surface, bone, Mild ([2]; 10 mg/kg): 2 | Number of animals: Increased eroded surface, bone, Minimal ([2]; 10 mg/kg): 2 | Number of animals: Increased eroded surface, bone, Moderate ([2]; 10 mg/kg): 3 | Number of animals: Mixed cell inflammation, Marked ([2]; 10 mg/kg): 2 | Number of animals: Mixed cell inflammation, Mild ([2]; 10 mg/kg): 2 | Number of animals: Mixed cell inflammation, Minimal ([2]; 10 mg/kg): 1 | Number of animals: Mixed cell inflammation, Moderate ([2]; 10 mg/kg): 3 | Number of animals: No Visible Lesions ([2]; 10 mg/kg): 0 | Number of animals: Erosion/Ulcer, cartilaginous, Marked ([2]; 30 mg/kg): 0 | Number of animals: Erosion/Ulcer, cartilaginous, Mild ([2]; 30 mg/kg): 4 | Number of animals: Erosion/Ulcer, cartilaginous, Minimal ([2]; 30 mg/kg): 1 | Number of animals: Erosion/Ulcer, cartilaginous, Moderate ([2]; 30 mg/kg): 0 | Number of animals: Granulation tissue, Marked ([2]; 30 mg/kg): 0 | Number of animals: Granulation tissue, Mild ([2]; 30 mg/kg): 1 | Number of animals: Granulation tissue, Minimal ([2]; 30 mg/kg): 2 | Number of animals: Granulation tissue, Moderate ([2]; 30 mg/kg): 4 | Number of animals: Increased bone, periosteum, Marked ([2]; 30 mg/kg): 0 | Number of animals: Increased bone, periosteum, Mild ([2]; 30 mg/kg): 2 | Number of animals: Increased bone, periosteum, Minimal ([2]; 30 mg/kg): 1 | Number of animals: Increased bone, periosteum, Moderate ([2]; 30 mg/kg): 0 | Number of animals: Increased eroded surface, bone, Marked ([2]; 30 mg/kg): 0 | Number of animals: Increased eroded surface, bone, Mild ([2]; 30 mg/kg): 4 | Number of animals: Increased eroded surface, bone, Minimal ([2]; 30 mg/kg): 0 | Number of animals: Increased eroded surface, bone, Moderate ([2]; 30 mg/kg): 0 | Number of animals: Mixed cell inflammation, Marked ([2]; 30 mg/kg): 0 | Number of animals: Mixed cell inflammation, Mild ([2]; 30 mg/kg): 3 | Number of animals: Mixed cell inflammation, Minimal ([2]; 30 mg/kg): 0 | Number of animals: Mixed cell inflammation, Moderate ([2]; 30 mg/kg): 4 | Number of animals: No Visible Lesions ([2]; 30 mg/kg): 1 | samples with pathologic observations ([2]; CIA rats, 3 mg/kg (group 5)): All samples | erosion/ulcer in articular cartilage [2, 3]: mild to moderate | granulation tissue (pannus) [2, 3]: mild and mild to moderate | increased eroded surface of bone (bone resorption) [2, 3]: mild to moderate | increased periosteal bone (periosteal bone formation) [2, 3]: mild to moderate | mixed cell inflammation [2, 3]: moderate to marked | samples with pathologic observations ([2]; CIA rats, 10 mg/kg (group 6)): All samples | erosion/ulcer in articular cartilage [2, 4]: mild and moderate | granulation tissue (pannus) [2, 4]: mild and moderate | increased eroded surface of bone (bone resorption) [2, 4]: mild and moderate | increased periosteal bone (periosteal bone formation) [2, 4]: minimal; also recorded: moderate | mixed cell inflammation [2, 4]: moderate | samples with no recorded pathological observations ([2]; CIA rats, 30 mg/kg (group 7)): One out of eight | erosion in the articular cartilages [2, 5]: mild | granulation tissue (pannus) [2, 5]: mild and moderate | increased eroded surface of bone (bone resorption) [2, 5]: mild | increased periosteal bone (periosteal bone formation) [2, 5]: mild | mixed cell inflammation [2, 5]: mild and moderate | pathologic observations after microscopic evaluation, overall ([2]; CIA rats, 3, 10 and 30 mg/kg (Groups 5-7)): at lower levels relative to samples from animals in the CIA-induced group (Group 2) in a dose-dependent manner

Reference: patent US20250263370A1 (Tay Therapeutics Limited, priority 2022, published 2025)
